This note sets out measurements from patent publication US7868135B2, “Compositions of lipopeptide antibiotic derivatives and methods of use thereof” (priority 2003, dated 2011).

Starred links: 1 amine or outer side, 2 acyl side, 3 side chain; linkers in the order of their positions; H or OH if unused. Positions of bridges follow the written chain, without caps; N, C: chain ends. Non-standard residues stand in square brackets, D forms with d. Residues, ends and D or L forms follow the SMILES beside them. ξ: configuration not given here. *: point of attachment. Adamantane1carbonyl = O=C(C12CC3CC(CC(C3)C1)C2)*; X18 = CC(NC(=O)/C=C/c1ccco1)C(N[*:1])C(=O)[*:2]; Propanoyl(3-SO2Ph) = O=C(CCS(=O)(=O)c1ccccc1)*; X29 = COCCOCCOCC(=O)NC(C)C(N[*:1])C(=O)[*:2]; X3 = CC(NC(=O)[C@H](N)CN)C(N[*:1])C(=O)[*:2]; ξAbu(βξ-NH2) = CC(N[*:3])C(N[*:1])C(=O)[*:2]; Pentadecanoyl = CCCCCCCCCCCCCCC(=O)*; ξAsp(βξ-Me) = CC(C(=O)O)C(N)C(=O)O; X13 = O=C(CCCCCCCCCCOc1ccccc1)*; ξAbu(3ξ-NH2) = CC(N)C(N)C(=O)O; Pip = O=C(O)[CH]1CCCCN1; ξD = NC(CC(=O)O)C(=O)O; ξPip = O=C(O)C1CCCCN1; ξV = CC(C)C(N)C(=O)O; ξP = O=C(O)C1CCCN1

The subject of this assay is Staphylococcus aureus (MSSA). The conditions noted are these: 24 h. In outline:
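Broth microdilution MIC per NCCLS M7-A6 with doubling serial dilutions, in cation-adjusted Mueller-Hinton broth supplemented with 0.625 mM calcium.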
One may read the MIC as the smallest concentration in the dilution series that meets the test's criterion for growth inhibition. With `CCCCCCCCCCCCCCC(=O)NC(CC(=O)O)C(=O)NC1C(=O)N2CCCCC2C(=O)NC(C(C)C(=O)O)C(=O)NC(CC(=O)O)C(=O)NCC(=O)NC(CC(=O)O)C(=O)NCC(=O)NC(C(C)NC(=O)[C@H](N)CN)C(=O)NC(C(C)C)C(=O)N2CCCC2C(=O)NC1C` (stereo partly drawn) [Compound 328, C15-Amphomycin-9-(D-Dap)] (Pentadecanoyl-[ξD][ξAbu(βξ-NH2)][ξPip][ξAsp(βξ-Me)][ξD]G[ξD]G[X3][ξV][ξP]; lactam 2-C), the MIC came out at 2 µg/mL.

As to `CCCCCCCCCCCCCCC(=O)NC(C)C1NC(=O)CNC(=O)C(CC(=O)O)NC(=O)CNC(=O)C(CC(=O)O)NC(=O)C(C(C)C(=O)O)NC(=O)C2CCCCN2C(=O)C(NC(=O)C(CC(=O)O)NC(=O)CNC(=O)[C@@H](N)CCCCN)C(C)NC(=O)C2CCCN2C(=O)C(C(C)C)NC1=O` (stereo partly drawn) [Compound 331, Lys-Gly-Amphomycin-9-C15] (H-KG[ξD][ξAbu(βξ-NH2)][ξPip][ξAsp(βξ-Me)][ξD]G[ξD]G[ξAbu(βξ-NH2)](Pentadecanoyl)[ξV][ξP]; lactam 4-C), the MIC is more than 64 µg/mL.

As for `CC(C)C1NC(=O)C(C(C)N)NC(=O)CNC(=O)C(CC(=O)O)NC(=O)CNC(=O)C(CC(=O)O)NC(=O)C(C(C)C(=O)O)NC(=O)C2CCCCN2C(=O)C(NC(=O)C(CC(=O)O)NC(=O)CCCCCCCCCCOc2ccccc2)C(C)NC(=O)C2CCCN2C1=O` (stereo not drawn) [Compound 333, (11-(Phenoxy)Undecanoyl)-Amphomycin] (X13-D[ξAbu(βξ-NH2)][Pip][ξAsp(βξ-Me)]DGDG[ξAbu(3ξ-NH2)]VP; lactam 2-C; configuration not given here), the MIC amounted to 1 µg/mL.

As for `CC(C)C1NC(=O)C(C(C)N)NC(=O)CNC(=O)C(CC(=O)O)NC(=O)CNC(=O)C(CC(=O)O)NC(=O)C(C(C)C(=O)O)NC(=O)C2CCCCN2C(=O)C(NC(=O)C(CC(=O)O)NC(=O)C23CC4CC(CC(C4)C2)C3)C(C)NC(=O)C2CCCN2C1=O` (stereo not drawn) [Compound 336] (Adamantane1carbonyl-D[ξAbu(βξ-NH2)][Pip][ξAsp(βξ-Me)]DGDG[ξAbu(3ξ-NH2)]VP; lactam 2-C; configuration not given here), the MIC was more than 64 µg/mL.

For `CCCCCCCCCCCCOc1cccc2ccc(C(=O)NC(CC(=O)O)C(=O)NC3C(=O)N4CCCCC4C(=O)NC(C(C)C(=O)O)C(=O)NC(CC(=O)O)C(=O)NCC(=O)NC(CC(=O)O)C(=O)NCC(=O)NC(C(C)N)C(=O)NC(C(C)C)C(=O)N4CCCC4C(=O)NC3C)nc12` (stereo not drawn) [Compound 339, (8-Dodecyloxy-Quinoline-2-Carbonyl)-Amphomycin], the MIC was found to be 0.5 µg/mL.

As to `CCCCCCCCCCCCCCC(=O)NC(CC(=O)O)C(=O)NC1C(=O)N2CCCCC2C(=O)NC(C(C)C(=O)O)C(=O)NC(CC(=O)O)C(=O)NCC(=O)NC(CC(=O)O)C(=O)NCC(=O)NC(C(C)NC(=O)[C@@H](N)Cc2ccccc2)C(=O)NC(C(C)C)C(=O)N2CCCC2C(=O)NC1C` (stereo partly drawn) [Compound 341, C15-Amphomycin-9-Phe], the MIC is more than 64 µg/mL.

Consider `CCCCCCCCCCCCCCC(=O)NC(CC(=O)O)C(=O)NC1C(=O)N2CCCCC2C(=O)NC(C(C)C(=O)O)C(=O)NC(CC(=O)O)C(=O)NCC(=O)NC(CC(=O)O)C(=O)NCC(=O)NC(C(C)NC(=O)CCCCCCCCCCCCCC)C(=O)NC(C(C)C)C(=O)N2CCCC2C(=O)NC1C` (stereo not drawn) [Compound 342, C15-Amphomycin-9-C15], for which the MIC is more than 64 µg/mL.

With `CCCCCCCCCCCCCCC(=O)NC(CC(=O)O)C(=O)NC1C(=O)N2CCCCC2C(=O)NC(C(C)C(=O)O)C(=O)NC(CC(=O)O)C(=O)NCC(=O)NC(CC(=O)O)C(=O)NCC(=O)NC(C(C)NC(=O)COCCOCCOC)C(=O)NC(C(C)C)C(=O)N2CCCC2C(=O)NC1C` (stereo not drawn) [Compound 343, C15-Amphomycin-9-([2-(2-Methoxy-Ethoxy)-Ethoxy]-Acetyl)] (Pentadecanoyl-D[ξAbu(βξ-NH2)][Pip][ξAsp(βξ-Me)]DGDG[X29]VP; lactam 2-C; configuration not given here), the MIC is 64 µg/mL.

In the case of `CCCCCCCCCC(=O)N(C)CC(=O)NC(CC(=O)O)C(=O)NC1C(=O)N2CCCCC2C(=O)NC(C(C)C(=O)O)C(=O)NC(CC(=O)O)C(=O)NCC(=O)NC(CC(=O)O)C(=O)NCC(=O)NC(C(C)N)C(=O)NC(C(C)C)C(=O)N2CCCC2C(=O)NC1C` (stereo not drawn) [Compound 344, C10-Sar-Amphomycin], the MIC was more than 64 µg/mL.

`CCCCCCCCCCCCCC(=O)N(C)CC(=O)NC(CC(=O)O)C(=O)NC1C(=O)N2CCCCC2C(=O)NC(C(C)C(=O)O)C(=O)NC(CC(=O)O)C(=O)NCC(=O)NC(CC(=O)O)C(=O)NCC(=O)NC(C(C)N)C(=O)NC(C(C)C)C(=O)N2CCCC2C(=O)NC1C` (stereo not drawn) [Compound 345, C14-Sar-Amphomycin]: the MIC stood at 64 µg/mL.

In the case of `CCCCCCCC(=O)N(C)CC(=O)NC(CC(=O)O)C(=O)NC1C(=O)N2CCCCC2C(=O)NC(C(C)C(=O)O)C(=O)NC(CC(=O)O)C(=O)NCC(=O)NC(CC(=O)O)C(=O)NCC(=O)NC(C(C)N)C(=O)NC(C(C)C)C(=O)N2CCCC2C(=O)NC1C` (stereo not drawn) [Compound 346, C8-Sar-Amphomycin], the MIC was more than 64 µg/mL.

`CCCCCCCCCCCCCCC(=O)NC(CC(=O)O)C(=O)NC1C(=O)N2CCCCC2C(=O)NC(C(C)C(=O)O)C(=O)NC(CC(=O)O)C(=O)NCC(=O)NC(CC(=O)O)C(=O)NCC(=O)NC(C(C)NC(=O)CCCCCCCCCCC)C(=O)NC(C(C)C)C(=O)N2CCCC2C(=O)NC1C` (stereo not drawn) [Compound 347, C15-Amphomycin-9-C12]: the MIC is more than 64 µg/mL.

As for `CCCCCCCCCCCCCCC(=O)NC(CC(=O)O)C(=O)NC1C(=O)N2CCCCC2C(=O)NC(C(C)C(=O)O)C(=O)NC(CC(=O)O)C(=O)NCC(=O)NC(CC(=O)O)C(=O)NCC(=O)NC(C(C)NC(=O)CCCCCCCCCCOc2ccccc2)C(=O)NC(C(C)C)C(=O)N2CCCC2C(=O)NC1C` (stereo not drawn) [Compound 348, C15-Amphomycin-9-(11-Phenoxyundecanoyl)] (Pentadecanoyl-D[ξAbu(βξ-NH2)][Pip][ξAsp(βξ-Me)]DGDG[ξAbu(βξ-NH2)](X13)VP; lactam 2-C; configuration not given here), the MIC is more than 64 µg/mL.

Regarding `CCCCCCCCCCCCCCC(=O)NC(CC(=O)O)C(=O)NC1C(=O)N2CCCCC2C(=O)NC(C(C)C(=O)O)C(=O)NC(CC(=O)O)C(=O)NCC(=O)NC(CC(=O)O)C(=O)NCC(=O)NC(C(C)NC(=O)/C=C/c2ccco2)C(=O)NC(C(C)C)C(=O)N2CCCC2C(=O)NC1C` (stereo not drawn) [Compound 349, C15-Amphomycin-9-(3-Furan-2-yl-Acryloyl)] (Pentadecanoyl-D[ξAbu(βξ-NH2)][Pip][ξAsp(βξ-Me)]DGDG[X18]VP; lactam 2-C; configuration not given here), the minimum inhibitory concentration (MIC) came to 64 µg/mL.

`CCCCCCCCCCCCCCC(=O)NC(CC(=O)O)C(=O)NC1C(=O)N2CCCCC2C(=O)NC(C(C)C(=O)O)C(=O)NC(CC(=O)O)C(=O)NCC(=O)NC(CC(=O)O)C(=O)NCC(=O)NC(C(C)NC(=O)CCS(=O)(=O)c2ccccc2)C(=O)NC(C(C)C)C(=O)N2CCCC2C(=O)NC1C` (stereo not drawn) [Compound 350, C15-Amphomycin-9-(3-(Benzenesulfonyl)Propionoyl)] (Pentadecanoyl-D[ξAbu(βξ-NH2)][Pip][ξAsp(βξ-Me)]DGDG[ξAbu(βξ-NH2)](Propanoyl(3-SO2Ph))VP; lactam 2-C; configuration not given here): the MIC came out at 64 µg/mL.
